Data from EP4707280A1, “1,4-CINEOLE DERIVATIVE AND INTERMEDIATE THEREOF, HERBICIDE CONTAINING SAID DERIVATIVE AS ACTIVE INGREDIENT, METHOD FOR USING HERBICIDE, AND METHOD FOR PREPARING AGROCHEMICAL COMPOSITION” (HOKKO CHEMICAL INDUSTRY CO., LTD., priority 2023, dated 2024).

Legend:
Format in all cases: in vivo
[1] = test system: Echinochloa crus-galli var. formosensis; test: Test Example 1: herbicidal effect test by soil application in paddy rice; settings: 120 g active ingredient per 10 ares, applied immediately after sowing, flooded pots, 14 days after application; for pest or weed control at 1200 g/ha: Echinochloa crus-galli, soil, 336 h, read-out: weed inhibition rate
Outline: (§1)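 Pre-emergence paddy treatment: diluted emulsifiable concentrate applied by dropper at 120 g a.i./10 ares immediately after sowing. Seeds (30 per species, 0–1 cm deep) in fertilized, puddled paddy soil kept under ~3 cm flood in a glass greenhouse.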

Scirpus juncoides [2] = test: as above; settings: 120 g active ingredient per 10 ares, applied immediately after sowing, flooded pots, 14 days after application; for pest or weed control at 1200 g/ha: Schoenoplectiella juncoides, soil, 336 h, read-out: weed inhibition rate
Outline: as §1

[3] = test system: Echinochloa crus-galli var. formosensis; test: Test Example 2: herbicidal effect test by application during growth period of paddy rice; settings: 120 g per 10 ares, applied seven days after sowing, flooded pots, 14 days after application; for inhibition at 1200 g/ha: Echinochloa crus-galli, read-out: weed inhibition rate
Outline: (§2)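 Steps: puddle fertilized paddy soil; sow 30 seeds of each weed at 0–1 cm; flood to roughly 3 cm and keep in a glasshouse; at day 7 drop in diluted emulsifiable concentrate (120 g a.i. per 10 ares); score inhibition (%) 14 days later, two replicates.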

Scirpus juncoides [4] = test: as above; settings: 120 g per 10 ares, applied seven days after sowing, flooded pots, 14 days after application; for inhibition at 1200 g/ha: Schoenoplectiella juncoides, read-out: weed inhibition rate
Outline: as §2

Digitaria ciliaris [5] = test: Test Example 3: herbicidal effect test by soil application in upland field; settings: 120 g per 10 ares, sprayed one day after sowing, 14 days after application; for inhibition at 1200 g/ha: Digitaria ciliaris, read-out: weed inhibition rate
Outline: (§3)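 Weed inhibition (%) was assessed 14 days after treatment, in duplicate per concentration group. Seeds had been mixed into the upper 1 cm of upland alluvial loam, and the soil surface was sprayed one day later with the diluted emulsifiable concentrate at 120 g active ingredient per 10 ares.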

Echinochloa crus-galli [6] = test: as above; settings: 120 g per 10 ares, sprayed one day after sowing, 14 days after application; for inhibition at 1200 g/ha: Echinochloa crus-galli, read-out: weed inhibition rate
Outline: as §3

Digitaria ciliaris [7] = test: Test Example 4: herbicidal effect test by stem and leaf treatment in upland field; settings: 120 g per 10 ares, sprayed seven days after sowing, upland soil, 14 days after application; for inhibition at 1200 g/ha: Digitaria ciliaris, read-out: weed inhibition rate
Echinochloa crus-galli [8] = test: as above; settings: 120 g per 10 ares, sprayed seven days after sowing, upland soil, 14 days after application; for inhibition at 1200 g/ha: Echinochloa crus-galli, read-out: weed inhibition rate
[9] = test system: Echinochloa crus-galli var. formosensis; test: Test Example 5: herbicidal effect test by soil application in paddy rice (low dose); settings: 7.5 g per 10 ares, applied immediately after sowing, flooded pots, 14 days after application; for inhibition at 75 g/ha: Echinochloa crus-galli, soil, 336 h, read-out: weed inhibition rate
Outline: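 Flooded-paddy soil application at low dose (7.5 g a.i. per 10 ares), given by dropper as diluted emulsifiable concentrate directly after sowing weeds 0–1 cm deep. Effect evaluated after 14 days in duplicate.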

[10] = test system: Echinochloa crus-galli var. formosensis; test: Test Example 6: herbicidal effect test by application during growth period of paddy rice (low dose); settings: 7.5 g per 10 ares, applied seven days after sowing, flooded pots, 14 days after application; for inhibition at 75 g/ha: Echinochloa crus-galli, read-out: weed inhibition rate
Outline: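 Emulsifiable concentrate, water-diluted, dropped onto flooded paddy pots 7 days post-sowing at 7.5 g active ingredient/10 a. Greenhouse-grown weeds; percent inhibition scored at day 14 after treatment.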

Digitaria ciliaris [11] = test: Test Example 7: herbicidal effect test by soil application in upland field (low dose); settings: 7.5 g per 10 ares, sprayed one day after sowing, 14 days after application; for inhibition at 75 g/ha: Digitaria ciliaris, read-out: weed inhibition rate
Method: (§4) The present test was conducted in duplicate for each chemical concentration group, and the weed inhibition rate (%) was determined 14 days after chemical application using the following formula (Math. 1). [formula]
(§5) Pots with an area of 36 cm^2 were filled with upland soil (alluvial loam), twenty seeds each of weeds of Digitaria ciliaris, and Echinochloa crus-galli were uniformly mixed with the top 1 cm layer of soil and the surface was lightly pressed down. One day after sowing, an emulsifiable concentrate prepared according to Formulation Example 5 using the compound shown below was diluted with water, and the diluted solution was sprayed onto the soil surface at a rate of 100 liters per 10 ares. The amount of the active ingredient to be applied was equivalent to 7.5 g per 10 ares. Fourteen days after chemical application, the herbicidal effect was evaluated according to the same criteria as in Test Example 1.

Echinochloa crus-galli [12] = test: as above; settings: 7.5 g per 10 ares, sprayed one day after sowing, 14 days after application; for inhibition at 75 g/ha: Echinochloa crus-galli, read-out: weed inhibition rate
Method: as §4, §5

Digitaria ciliaris [13] = test: Test Example 8: herbicidal effect test by stem and leaf treatment in upland field (low dose); settings: 7.5 g per 10 ares, sprayed seven days after sowing, upland soil, 14 days after application; for inhibition at 75 g/ha: Digitaria ciliaris, read-out: weed inhibition rate
Echinochloa crus-galli [14] = test: as above; settings: 7.5 g per 10 ares, sprayed seven days after sowing, upland soil, 14 days after application; for inhibition at 75 g/ha: Echinochloa crus-galli, read-out: weed inhibition rate

CC(C)[C@]12C[C@@H](OCc3ccccc3F)[C@](C)(C=C1OS(=O)(=O)C(F)(F)F)O2 (racemic) [3-680]
≥ 80%: weed inhibition rate [1] | weed inhibition rate (Scirpus juncoides [2]) | weed inhibition rate [3] | weed inhibition rate (Scirpus juncoides [4]) | weed inhibition rate (Digitaria ciliaris [5]) | weed inhibition rate (Echinochloa crus-galli [6]) | weed inhibition rate (Digitaria ciliaris [7]) | weed inhibition rate (Echinochloa crus-galli [8]) | weed inhibition rate [9] | weed inhibition rate [10] | weed inhibition rate (Digitaria ciliaris [11]) | weed inhibition rate (Echinochloa crus-galli [12]) | weed inhibition rate (Digitaria ciliaris [13]) | weed inhibition rate (Echinochloa crus-galli [14])

Cc1ccccc1CO[C@@H]1C[C@]2(C(C)C)O[C@@]1(C)C[C@@H]2Cl [1-9, (1R,2S,4S,5R)-2-chloro-1-isopropyl-4-methyl-5-(o-tolylmethoxy)-7-oxabicyclo[2.2.1]heptane]
≥ 80%: pest or weed control at 1200 g/ha [1] | pest or weed control at 1200 g/ha (Scirpus juncoides [2]) | inhibition at 1200 g/ha [3] | inhibition at 1200 g/ha (Scirpus juncoides [4]) | inhibition at 1200 g/ha (Digitaria ciliaris [5]) | inhibition at 1200 g/ha (Echinochloa crus-galli [6]) | inhibition at 1200 g/ha (Digitaria ciliaris [7]) | inhibition at 1200 g/ha (Echinochloa crus-galli [8]) | inhibition at 75 g/ha [9] | inhibition at 75 g/ha [10] | inhibition at 75 g/ha (Digitaria ciliaris [11]) | inhibition at 75 g/ha (Echinochloa crus-galli [12]) | inhibition at 75 g/ha (Digitaria ciliaris [13]) | inhibition at 75 g/ha (Echinochloa crus-galli [14])

Cc1cccc(C)c1CO[C@@H]1C[C@]2(C(C)C)O[C@@]1(C)C[C@@H]2Cl [1-10, (1R,2S,4S,5R)-2-chloro-5-[(2,6-dimethylphenyl)methoxy]-1-isopropyl-4-methyl-7-oxabicyclo[2.2.1]heptane]
≥ 80%: pest or weed control at 1200 g/ha [1] | pest or weed control at 1200 g/ha (Scirpus juncoides [2]) | inhibition at 1200 g/ha [3] | inhibition at 1200 g/ha (Scirpus juncoides [4]) | inhibition at 1200 g/ha (Digitaria ciliaris [5]) | inhibition at 1200 g/ha (Echinochloa crus-galli [6]) | inhibition at 1200 g/ha (Digitaria ciliaris [7]) | inhibition at 1200 g/ha (Echinochloa crus-galli [8]) | inhibition at 75 g/ha [9] | inhibition at 75 g/ha [10] | inhibition at 75 g/ha (Digitaria ciliaris [11]) | inhibition at 75 g/ha (Echinochloa crus-galli [12]) | inhibition at 75 g/ha (Digitaria ciliaris [13]) | inhibition at 75 g/ha (Echinochloa crus-galli [14])

COc1ccccc1CO[C@@H]1C[C@]2(C(C)C)O[C@@]1(C)C[C@@H]2Cl [1-11, (1R,2S,4S,5R)-2-chloro-1-isopropyl-5-[(2-methoxyphenyl)methoxy]-4-methyl-7-oxabicyclo[2.2.1]heptane]
≥ 80%: pest or weed control at 1200 g/ha [1] | pest or weed control at 1200 g/ha (Scirpus juncoides [2]) | inhibition at 1200 g/ha [3] | inhibition at 1200 g/ha (Scirpus juncoides [4]) | inhibition at 1200 g/ha (Digitaria ciliaris [5]) | inhibition at 1200 g/ha (Echinochloa crus-galli [6]) | inhibition at 1200 g/ha (Digitaria ciliaris [7]) | inhibition at 1200 g/ha (Echinochloa crus-galli [8]) | inhibition at 75 g/ha [9] | inhibition at 75 g/ha [10] | inhibition at 75 g/ha (Digitaria ciliaris [11]) | inhibition at 75 g/ha (Echinochloa crus-galli [12]) | inhibition at 75 g/ha (Digitaria ciliaris [13]) | inhibition at 75 g/ha (Echinochloa crus-galli [14])

CC(C)[C@]12C[C@@H](OCc3ccccc3Cl)[C@](C)(C[C@@H]1Cl)O2 [1-13, (1R,2S,4S,5R)-2-chloro-5-[(2-chlorophenyl)methoxy]-1-isopropyl-4-methyl-7-oxabicyclo[2.2.1]heptane]
≥ 80%: pest or weed control at 1200 g/ha [1] | pest or weed control at 1200 g/ha (Scirpus juncoides [2]) | inhibition at 1200 g/ha [3] | inhibition at 1200 g/ha (Scirpus juncoides [4]) | inhibition at 1200 g/ha (Digitaria ciliaris [5]) | inhibition at 1200 g/ha (Echinochloa crus-galli [6]) | inhibition at 1200 g/ha (Digitaria ciliaris [7]) | inhibition at 1200 g/ha (Echinochloa crus-galli [8]) | inhibition at 75 g/ha [9] | inhibition at 75 g/ha [10] | inhibition at 75 g/ha (Digitaria ciliaris [11]) | inhibition at 75 g/ha (Echinochloa crus-galli [12]) | inhibition at 75 g/ha (Digitaria ciliaris [13]) | inhibition at 75 g/ha (Echinochloa crus-galli [14])

CC(C)[C@]12C[C@@H](OCc3c(F)cccc3F)[C@](C)(C[C@@H]1Cl)O2 [1-14, (1R,2S,4S,5R)-2-chloro-5-[(2,6-difluorophenyl)methoxy]-1-isopropyl-4-methyl-7-oxabicyclo[2.2.1]heptane]
≥ 80%: pest or weed control at 1200 g/ha [1] | pest or weed control at 1200 g/ha (Scirpus juncoides [2]) | inhibition at 1200 g/ha [3] | inhibition at 1200 g/ha (Scirpus juncoides [4]) | inhibition at 1200 g/ha (Digitaria ciliaris [5]) | inhibition at 1200 g/ha (Echinochloa crus-galli [6]) | inhibition at 1200 g/ha (Digitaria ciliaris [7]) | inhibition at 1200 g/ha (Echinochloa crus-galli [8]) | inhibition at 75 g/ha [9] | inhibition at 75 g/ha [10] | inhibition at 75 g/ha (Digitaria ciliaris [11]) | inhibition at 75 g/ha (Echinochloa crus-galli [12]) | inhibition at 75 g/ha (Digitaria ciliaris [13]) | inhibition at 75 g/ha (Echinochloa crus-galli [14])

CO[C@H]1C[C@]2(C)O[C@@]1(C(C)C)C[C@H]2OCc1ccccc1 [1-150, (1R,2S,4S,5R)-5-benzyloxy-1-isopropyl-2-methoxy-4-methyl-7-oxabicyclo[2.2.1]heptane]
≥ 80%: pest or weed control at 1200 g/ha [1] | pest or weed control at 1200 g/ha (Scirpus juncoides [2]) | inhibition at 1200 g/ha [3] | inhibition at 1200 g/ha (Scirpus juncoides [4]) | inhibition at 1200 g/ha (Digitaria ciliaris [5]) | inhibition at 1200 g/ha (Echinochloa crus-galli [6]) | inhibition at 1200 g/ha (Digitaria ciliaris [7]) | inhibition at 1200 g/ha (Echinochloa crus-galli [8]) | inhibition at 75 g/ha [9] | inhibition at 75 g/ha [10] | inhibition at 75 g/ha (Digitaria ciliaris [11]) | inhibition at 75 g/ha (Echinochloa crus-galli [12]) | inhibition at 75 g/ha (Digitaria ciliaris [13]) | inhibition at 75 g/ha (Echinochloa crus-galli [14])

CC(C)=CCO[C@@H]1C[C@]2(C(C)C)O[C@@]1(C)C[C@@H]2Cl [1-612, (1R,2S,4S,5R)-2-chloro-1-isopropyl-4-methyl-5-(3-methylbut-2-enoxy)-7-oxabicyclo[2.2.1]heptane]
≥ 80%: pest or weed control at 1200 g/ha [1] | pest or weed control at 1200 g/ha (Scirpus juncoides [2]) | inhibition at 1200 g/ha [3] | inhibition at 1200 g/ha (Scirpus juncoides [4]) | inhibition at 1200 g/ha (Digitaria ciliaris [5]) | inhibition at 1200 g/ha (Echinochloa crus-galli [6]) | inhibition at 1200 g/ha (Digitaria ciliaris [7]) | inhibition at 1200 g/ha (Echinochloa crus-galli [8]) | inhibition at 75 g/ha [9] | inhibition at 75 g/ha [10] | inhibition at 75 g/ha (Digitaria ciliaris [11]) | inhibition at 75 g/ha (Echinochloa crus-galli [12]) | inhibition at 75 g/ha (Digitaria ciliaris [13]) | inhibition at 75 g/ha (Echinochloa crus-galli [14])

CC#CCO[C@@H]1C[C@]2(C(C)C)O[C@@]1(C)C[C@@H]2Cl [1-614, (1R,2S,4S,5R)-5-but-2-ynoxy-2-chloro-1-isopropyl-4-methyl-7-oxabicyclo[2.2.1]heptane]
≥ 80%: pest or weed control at 1200 g/ha [1] | pest or weed control at 1200 g/ha (Scirpus juncoides [2]) | inhibition at 1200 g/ha [3] | inhibition at 1200 g/ha (Scirpus juncoides [4]) | inhibition at 1200 g/ha (Digitaria ciliaris [5]) | inhibition at 1200 g/ha (Echinochloa crus-galli [6]) | inhibition at 1200 g/ha (Digitaria ciliaris [7]) | inhibition at 1200 g/ha (Echinochloa crus-galli [8]) | inhibition at 75 g/ha [9] | inhibition at 75 g/ha [10] | inhibition at 75 g/ha (Digitaria ciliaris [11]) | inhibition at 75 g/ha (Echinochloa crus-galli [12]) | inhibition at 75 g/ha (Digitaria ciliaris [13]) | inhibition at 75 g/ha (Echinochloa crus-galli [14])
